Test results reported in patent publication US11440923B2, “Substituted macrocyclic indole derivatives” (Bayer Aktiengesellschaft, priority 2017, dated 2022).
Where a name gives a salt, the structure may show the parent alone. Read-outs that look alike come from different tables or passages of the source.

Legend:
[1] = tested on: SUDHL5 cells; test: Induction of caspase-3/7 activity in SUDHL5 cells (Assay 4); format: cell-based
Outline: (§1)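 Caspase-3/7 activity measured in DLBCL lines after 3 h compound exposure at 37 °C, following overnight plating; Caspase-Glo 3/7 luminescence read after 1 h at 37 °C. Medium-only background subtracted, values normalized to mean of DMSO-treated cells.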

[2] = biological target: BCL-XL (Homo sapiens (Human), UniProt Q07817); test: Protein-protein interaction assay BCL-XL/Bad BH3 peptide (BCL-XL assay, TR-FRET); format: binding; conditions: read-out: BCL-XL Assay IC50 (median)
Chain of BCL-XL (Q07817 1-212): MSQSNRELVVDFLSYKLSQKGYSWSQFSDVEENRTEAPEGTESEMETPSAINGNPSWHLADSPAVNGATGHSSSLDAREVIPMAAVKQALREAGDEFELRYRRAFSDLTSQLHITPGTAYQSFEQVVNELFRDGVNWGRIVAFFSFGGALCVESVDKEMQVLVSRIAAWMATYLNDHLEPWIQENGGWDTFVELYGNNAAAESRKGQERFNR
Protocol: Assay 2 Protein-Protein Interaction Assay: BCL-XL/Bad BH3 Peptide (BCL-XL Assay)
The dose-dependent inhibition by the compounds described in this invention of the interaction between BCL-XL and the BH3 domain of Bad (both human) was determined using a steady state binding competition assay with time-resolved fluorescence energy transfer (TR-FRET) readout. For that purpose BCL-XL (amino acids 1-212, C-terminal fused to a hexahistidine (6×His) tag (SEQ ID 3) and a synthetic Bad BH3-derived peptide of sequence Biotin-PEG2-PEG2-[…]-Nle-[…]-amide (SEQ ID 4) served as protein receptor and tracer ligand respectively. The recombinant BCL-XL protein (expressed in E. coli) was purchased from BPS Bioscience (San Diego, Calif., USA). The Bad BH3-derived peptide can be obtained from e.g. Biosyntan (Berlin, Germany).
In the assay 11 different concentrations of each compound (0.1 nM, 0.33 nM, 1.1 nM, 3.8 nM, 13 nM, 44 nM, 0.15 μM, 0.51 μM, 1.7 μM, 5.9 μM and 20 μM) were typically measured as duplicates in the same microtiter plate. For that, 100-fold concentrated DMSO solutions were prepared by serial dilutions (1:3.4) of a 2 mM stock solution in a clear, 384-well microtiter plate (Greiner Bio-One, Frickenhausen, Germany). From there, 50 nl were transferred in a dark test plate (Greiner Bio-One, Frickenhausen, Germany). The assay was initiated by addition of 2 μL of a 2,5-fold concentrated His-BCL-XL solution (usually for a 1 nM end concentration in 5 μL reaction volume) in aqueous assay buffer [50 mM Tris/HCl pH 7, 100 mM sodium chloride (NaCl), 50 mM potassium fluoride (KF), 0.005% Tween-20, 2 mM DTT, 0.1% bovine gamma globulin (BGG)] to the compounds in the assay plate. This was followed by a 10-minute incubation step at 22° C. for pre-equilibration of the putative complex between His-BCL-XL and the compounds. After that, 3 μL of a 1.67-fold concentrated solution (in assay buffer) consisting of Bad BH3-derived peptide (1 nM end concentration) and TR-FRET detection reagents [1.67 nM anti-His-Eu cryptate and 1.67 nM streptavidin-XL665 (both from Cisbio Bioassays, Codolet, France)], were added.
The mixture was incubated in the dark for one hour at 22° C. and then overnight at 4° C. The formation of BCL-XL/Bad complexes was determined by measuring the resonance energy transfer of the anti-His- Eu-cryptate antibody to the streptavidin-XL665 present in the reaction. For that purpose, the fluorescence emission at 620 nm and 665 nm after excitation at 330-350 nm was measured in a TR-FRET measuring instrument, for instance a Rubystar or a Pherastar (both from BMG Lab Technologies, Offenburg, Germany) or a Viewlux (Perkin-Elmer). The ratio of the emission at 665 nm and at 622 nm was used as indicator of the amount of BCL-XL/Bad complexes present.
(§2) The resulting data (ratio) were normalized, taking 0% inhibition as the mean value of control measurements (usually 32 data points) where all reagents were included. In this case 50 nl DMSO were used instead of compounds. […] IC50 values were determined by regression analysis based on a 4 parameter equation (minimum, maximum, IC50, Hill; Y=Max+(Min−Max)/(1+(X/IC50)^Hill) using the Screener Software (Genedata).

[3] = tested on: SUDHL10 cells; test: Induction of cytotoxicity in SUDHL10 cells (Assay 6); format: cell-based; conditions: 5 h, CellTiter-Glo, read-out: Cytotox SUDHL10 IC50 (median)
Outline: (§3)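 Following overnight seeding at 37 °C, cells are treated with compound for 5 h, after which CellTiter-Glo reagent is added and luminescence measured following a 15 min room-temperature shake.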

[4] = tested on: HMC-1-8 cells; test: Antiproliferation assay HMC-1-8 (Assay 7); format: cell-based
Outline: (§4)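 CTG luminescence readout; cells plated, overnight at 37 °C, then 72 h compound treatment. Time-zero plate read in parallel. IC50 from day 0 and DMSO-normalised signal.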

[5] = tested on: SUDHL5 cells; test: Induction of cytotoxicity in SUDHL5 cells (Assay 6); format: cell-based; conditions: 5 h, CellTiter-Glo, read-out: Cytotox SUDHL5 IC50 (median)
Outline: as §3

[6] = tested on: AMO-1 cells; test: Antiproliferation assay AMO-1 (Assay 7); format: cell-based
Outline: as §4

[7] = tested on: SUDHL10 cells; test: Induction of caspase-3/7 activity in SUDHL10 cells (Assay 4); format: cell-based
Outline: as §1

[8] = tested on: SUDHL5 cells; test: Antiproliferation assay SUDHL5 (Assay 7); format: cell-based; conditions: 72 h, CellTiter-Glo, read-out: Antiproli SUDHL5 IC50 (median)
Outline: as §4

[9] = biological target: MCL-1 (Homo sapiens (Human), UniProt Q07820, K194A/K197A/R201A); test: Protein-protein interaction assay MCL-1/Noxa BH3 peptide (MCL-1 assay, TR-FRET); format: binding
Chain of MCL-1 (Q07820 whole entry, looked up, stated change not applied, the tested form may be a part): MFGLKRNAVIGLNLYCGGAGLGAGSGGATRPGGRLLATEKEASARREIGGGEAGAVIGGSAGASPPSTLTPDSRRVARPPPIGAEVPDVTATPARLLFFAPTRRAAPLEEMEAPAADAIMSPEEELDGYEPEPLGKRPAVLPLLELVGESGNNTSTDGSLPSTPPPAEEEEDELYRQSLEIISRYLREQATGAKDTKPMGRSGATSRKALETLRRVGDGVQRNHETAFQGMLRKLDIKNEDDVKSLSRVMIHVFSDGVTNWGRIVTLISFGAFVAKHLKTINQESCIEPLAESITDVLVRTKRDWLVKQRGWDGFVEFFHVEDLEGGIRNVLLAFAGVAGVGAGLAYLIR
Protocol: The dose-dependent inhibition by the compounds described in this invention of the interaction between MCL-1 and the BH3 domain of Noxa (both human) was determined using a steady state binding competition assay with time-resolved fluorescence energy transfer (TR-FRET) readout. For that purpose MCL-1 (amino acids 173-321, N-terminal fused to Maltose Binding Protein (MBP) SEQ ID 1)) and a synthetic Noxa BH3-derived peptide of sequence Biotin-PEG2-PEG2-PAELEVE-Nva-[…]-amide (SEQ ID 2) served as protein receptor and tracer ligand respectively. The MBP-MCL-1 was purchased from Beryllium (Bedford, Mass., USA). The expression and purification of this protein construct has been described elsewhere (DOI:10.1371/journal.pone.0125010). The Noxa BH3-derived peptide can be obtained from e.g. Biosyntan (Berlin, Germany).
For that, 100-fold concentrated DMSO solutions were prepared by serial dilutions (1:3.4) of a 2 mM stock solution in a clear, 384-well microtiter plate (Greiner Bio-One, Frickenhausen, Germany). From there, 50 nl were transferred in a dark test plate (Greiner Bio-One, Frickenhausen, Germany). The assay was initiated by addition of 2 μL of a 2,5-fold concentrated MBP-MCL-1 solution (usually for a 1 nM end concentration in 5 μL reaction volume) in aqueous assay buffer [50 mM Tris/HCl pH 7, 100 mM sodium chloride (NaCl), 50 mM potassium fluoride (KF), 0.005% Tween-20, 2 mM DTT, 0.1% bovine gamma globulin (BGG)] to the compounds in the assay plate. This was followed by a 10-minute incubation step at 22° C. for pre-equilibration of the putative complex between MBP-MCL-1 and the compounds.
The mixture was incubated in the dark for one hour at 22° C. and then overnight at 4° C. The formation of MCL-1/Noxa complexes was determined by measuring the resonance energy transfer of the anti-MBP-Eu-cryptate antibody to the streptavidin-XL665 present in the reaction.
For that purpose, the fluorescence emission at 620 nm and 665 nm after excitation at 330-350 nm was measured in a TR-FRET measuring instrument, for instance a Rubystar or a Pherastar (both from BMG Lab Technologies, Offenburg, Germany) or a Viewlux (Perkin-Elmer). The ratio of the emission at 665 nm and at 622 nm was used as indicator of the amount of MCL-1/NOXA complexes present.
as §2

[10] = read-out: Caspase SUDHL5 EC50 (median); caspase-3/7 induction, 3 h
[11] = read-out: Antiproli HMC-1-8 IC50 median; 72 h, CellTiter-Glo
[12] = read-out: Caspase SUDHL10 EC50 (median); caspase-3/7 induction, 3 h
[13] = caspase-3/7 induction, 3 h; read-out: Caspase SUDHL5 EC50 (median)
[14] = caspase-3/7 induction, 3 h; read-out: Caspase SUDHL10 EC50 (median)
[15] = Homo sapiens, SU-DHL-5, 3 h, caspase-3/7 induction, 3 h; read-out: Caspase SUDHL5 EC50 (median)
[16] = 72 h, CellTiter-Glo; read-out: Antiproli HMC-1-8 IC50 median
[17] = 72 h, CellTiter-Glo; read-out: Antiproli AMO-1 IC50 median

SMILES | EC50 [1, 10] [µM] | IC50 [2] [µM] | IC50 [3] [µM] | IC50 [4, 11] [µM] | IC50 [5] [µM] | IC50 ([6]; read-out: Antiproli AMO-1 IC50 median; 72 h, CellTiter-Glo) [µM] | EC50 [7, 12] [µM] | IC50 [8] [µM] | IC50 ([9]; MCL-1 Assay IC50 (median)) [µM] | EC50 [1, 13] [µM] | EC50 [7, 14] [µM] | IC50 ([8]; Homo sapiens, SU-DHL-5, 72 h) [µM] | EC50 [1, 15] [µM] | IC50 [4, 16] [µM] | IC50 [6, 17] [µM] | IC50 ([9]; read-out: MCL-1 Assay IC50 (median)) [µM] | IC50 ([3]; Homo sapiens, SU-DHL10, 5 h) [µM] | IC50 ([5]; Homo sapiens, SU-DHL-5, 5 h) [µM] | EC50 ([7]; Homo sapiens, SU-DHL10, 3 h, caspase-3/7 induction, 3 h; read-out: Caspase SUDHL10 EC50 (median)) [µM]
CCc1c2c(nn1C)C(C(F)(F)F)OCCCCn1c(C(=O)O)c(CCCOc3cccc4ccccc34)c3ccc(Cl)c-2c31 (single isomer, unassigned; enantiomer 2) [Example 34, (−)-4-chloro-3-ethyl-2-methyl-7-{3-[(naphthalen-1-yl)oxy]propyl}-15-(trifluoromethyl)-2,10,11,12,13,15-hexahydropyrazolo[4′,3′:9,10][1,6]oxazacycloundecino[8,7,6-hi]indole-8-carboxylic Acid—N-ethylethanamine Salt (Enantiomer 2)] | > 33 | > 20 | 26 | 20.7 | 7.1 | 30.9 | > 33 | – | – | – | – | – | – | – | – | – | – | – | –
Cc1c2c(nn1C)C(CCN1CCOCC1)OCCCCn1c(C(=O)O)c(CCCOc3cccc4ccccc34)c3cccc-2c31 (single isomer, unassigned; stereoisomer 1) [Example 5, 2,3-dimethyl-15-[2-(morpholin-4-yl)ethyl]-7-[3-(naphthalen-1-yloxy)propyl]-2,10,11,12,13,15-hexahydropyrazolo[4′,3′:9,10][1,6]oxazacycloundecino[8,7,6-hi]indole-8-carboxylic Acid (Stereoisomer 1)] | – | – | 0.49 | – | 0.34 | – | – | 0.44 | 0.0012 | 0.3 | 0.52 | – | – | – | – | – | – | – | –
CCc1c2c(nn1C)C1CCCN1CCCCn1c(C(=O)O)c(CCCOc3cccc4cc(F)ccc34)c3ccc(Cl)c-2c31 (racemic) [Example 104, (rac)-17-chloro-1-ethyl-14-{3-[(6-fluoronaphthalen-1-yl)oxy]propyl}-2-methyl-3b,4,5,6,8,9,10,11-octahydro-2H-pyrazolo[3′,4′:8,9]pyrrolo[1′,2′:6,7][1,6]diazacycloundecino[10,11,1-hi]indole-13-carboxylic Acid] | – | – | 0.43 | – | 0.34 | – | – | – | 0.00088 | – | 0.36 | 0.55 | 0.33 | 2.63 | 0.543 | – | – | – | –
CCc1c2c(nn1C)C1CCCN1CCCCn1c(C(=O)O)c(CCCOc3cccc4cc(F)ccc34)c3ccc(Cl)c-2c31 (single isomer, unassigned; (-)) [Example 106, (−)-17-chloro-1-ethyl-14-{3-[(6-fluoronaphthalen-1-yl)oxy]propyl}-2-methyl-3b,4,5,6,8,9,10,11-octahydro-2H-pyrazolo[3′,4′:8,9]pyrrolo[1′,2′:6,7][1,6]diazacycloundecino[10,11,1-hi]indole-13-carboxylic Acid] | – | – | 5.7 | – | 3.7 | – | – | 2.1 | – | 2.7 | 4.8 | – | – | 20.6 | 4.45 | 0.017 | – | – | –
CCc1c2c(nn1C)C(C1CC1)OCCCCn1c(C(=O)O)c(CCCOc3cccc4cc(F)ccc34)c3ccc(Cl)c-2c31 (single isomer, unassigned; enantiomer 2) [Example 40, (−)-4-chloro-15-cyclopropyl-3-ethyl-7-{3-[(6-fluoronaphthalen-1-yl)oxy]propyl}-2-methyl-2,10,11,12,13,15-hexahydropyrazolo[4′,3′:9,10][1,6]oxazacycloundecino[8,7,6-hi]indole-8-carboxylic Acid—N-ethylethanamine Salt (Enantiomer 2)] | > 33 | > 20 | 29 | 23.2 | 20 | – | 25 | – | – | – | – | – | – | – | – | – | – | – | –
Cc1c2c(nn1C)C(CCN1CCOCC1)OCCCCn1c(C(=O)O)c(CCCOc3cccc4ccccc34)c3cccc-2c31 (racemic) [Example 4, (rac)-2,3-dimethyl-15-[2-(morpholin-4-yl)ethyl]-7-[3-(naphthalen-1-yloxy)propyl]-2,10,11,12,13,15-hexahydropyrazolo[4′,3′:9,10][1,6]oxazacycloundecino[8,7,6-hi]indole-8-carboxylic Acid (Mixture of Stereoisomers)] | – | – | – | – | – | – | – | – | 0.0011 | – | – | 0.5 | 0.52 | – | – | – | 1.1 | 0.55 | 0.99
